# Read-outs that look alike come from different tables or passages of the source.
# How the values were obtained:
# [1] = Single ascending dose (SAD) study in healthy male volunteers: pharmacokinetics; type: in vivo, human; conditions: for Dose proportionality, Slope Estimate: 6 to 24 mg, n 18, power model; for Dose proportionality, Coefficient of determination / Dose proportionality, Intercept Estimate: n 18
# Protocol: Initially in the single ascending dose (SAD) study the safety, tolerability, and pharmacokinetics of the compound of Formula I at 6 mg, 12 mg, and 24 mg doses in healthy human male volunteers were evaluated. In this study, the healthy male volunteers within the mean age group of 28.7-35 years were orally administered an investigational medicinal product (IMP) or a placebo after an overnight fast (of at least 8 hours). The IMP used in this study was a hard gelatin capsule comprising the compound of Formula I of varying sizes containing either 6 mg or 24 mg of the compound of Formula I and the excipients. For the 12 mg dose, two capsules of 6 mg were used. The placebo formulation containing the excipients matched the compound of Formula I capsules in shape, size, and color. […] The median time of maximum concentration (Tmax: 2.5-3 hours, across dose range) was independent of the dose level. Dose-related increases in exposure (AUC and Cmax) were observed. […] The inter-subject variability, for the PK parameters, was generally higher in the 12 mg dose group when compared with that in the 6 mg and 24 mg dose groups (Table 07, and FIG. 1)
# Referring to FIG. 1, The dose proportionality assessment using ANCOVA was assessed in the PK analysis set. […] The estimates for the slope for all exposure parameters were between 0.9833 and 1.016.
# [2] = tested on: Ph+ CML (CP CML, AP CML, and BP CML); assay: Phase 2 open-label study (Part C) in CML resistant or intolerant to ≥3 prior TKIs including ponatinib: disease response; type: in vivo, human
# Protocol: A multicenter open-label study in subjects with CML (CP CML, AP CML, and BP CML) who documented resistance or intolerance to more than or equal to 3 prior TKIs one of which included ponatinib was performed. The subjects for this were grouped as follows: • a) Cohort A—Ph+ CML: Chronic phase (CP CML) cohort • b) Cohort B—Ph+ CML: Accelerated phase (AP) cohort • c) Cohort C—Ph+ CML: Blast phase (BP) cohort.
# The primary objective of this study was to evaluate the efficacy of the compound of Formula I in CP CML patients by cytogenetic outcomes and in AP CML and BP CML patients by hematologic outcomes. Secondary objectives included evaluation of anti-leukemic efficacy of compound of Formula I by molecular outcomes, hematological outcomes in CP CML patients, and by cytogenetic outcomes in AP CML and BP CML; time to first hematologic response; duration of response; progression-free survival (PFS) and overall survival (OS), population PK of the compound of Formula I and safety.
# The selection criteria for subjects (Both inclusion and exclusion) were the same as those set forth above study, except for the following: Subjects had to be previously treated with ≥3 prior TKIs including the 3rd generation TKI, ponatinib; subjects with Ph+ ALL were not included in this study; subjects with presence of T3151 mutations were excluded in the study. Limited to no response on a TKI therapy is reported in CML patients post-ponatinib treatment (Leuk Lymphoma 2018 June; 59 (6): 1312-1322).
# Patients were followed for survival by telephone survey.
# The Compound of Formula I with 174 mg as capsules was administered orally once daily continuously in 4-week cycles. Patients self-administered the compound of Formula I on an outpatient basis at approximately the same time each morning after overnight fasting or fasting ˜2 hours before and after dosing.
# Bone marrow aspirate samples were sent for review of cytogenetics by conventional Giemsa staining method (karyotyping). Fluorescence in situ hybridization (FISH) was performed on bone marrow aspirates only in cases of subjects who had achieved complete cytogenetic response (confirmed by karyotyping) with the studied drug and who had minimum residual disease. FISH was also used if a sufficient sample was not available for conducting the Giemsa staining method (karyotyping).
# Standard cytogenetic methods were used to determine the presence of the Ph+ and its presence (percentage) in the bone marrow. At least 20 cells in metaphase were evaluated for karyotyping. Bone marrow cytogenetics was scheduled to be performed within 7 days of the scheduled date irrespective of missed doses or disease or dose-associated AEs.
# Molecular response monitoring (MMR) using PCR for BCR-ABL copy number was performed on the collected blood samples and was assessed using the international scale (IS).
# The hematologic response was evaluated by peripheral blood utilizing local laboratory results.
# in vivo = type: in vivo; conditions: 14-day study
# clinical = conditions: human, in vivo, po
# Protocol: A±5 minutes window permitted till 4 hours PK sample collection. A±10 minutes window permitted for subsequent PK sample collection. Days 3, 8, 15, and 22 of Cycle 1:30 (±10) minutes Predose only. […] A #5 minutes window permitted till 4 hours PK sample collection. A #10 minutes window permitted for subsequent PK sample collection. Days 8, 15, and 22 of Cycle 2:30 (±10) minutes Predose only. Cycle 3 onwards: Predose samples on Day 1.
# Pharmacokinetic analysis was performed using non-compartmental analysis. The actual elapsed time from dose was used in the final PK parameter calculations. Plasma concentrations and PK parameters for the compound of Formula I were listed and summarized by dose cohort using descriptive statistics (n, mean, standard deviation, minimum, median, and maximum). Geometric mean and geometric coefficient of variation were calculated for PK parameters. Additionally, mean concentration profiles by dose cohort and cycle were illustrated. Dose proportionality of Cmax and AUC(0-24) was assessed graphically for Cycle 1 and Cycle 2. Dose proportionality was statistically evaluated using the power model approach, whenever the number of patients was at least 3 for a given cohort. Time to steady-state (Ctrough) was evaluated graphically. Differences among dose levels in CL/F and V/F, and dose-normalized Cmax and AUC(0-24) were explored using an analysis of variance.
# The PK parameters for the study were summarized by treatment using descriptive (N, n, mean, standard deviation [SD], coefficient of variation [CV] % minimum, median, maximum, geometric mean and CV %) statistics, except for Tmax. For Tmax, the number of subjects, minimum, median, and maximum are reported.
# [3] = male, human, plasma, oral, 6 mg (N = 6), mean
# [4] = male, human, plasma, oral, 12 mg (N = 6), mean
# [5] = male, human, plasma, oral, 24 mg (N = 6), mean
smiles,measurement,setting,value
"Cc1ccc(C(=O)NNC(=O)c2c(C)cccc2Cl)cc1C#Cc1cnc2ccccc2c1 [compound of Formula I, N′-(2-chloro-6-methylbenzoyl)-4-methyl-3-[2-(3-quinolyl)ethynyl]-benzohydrazide]",CL/F,"[1]; 6 mg (N = 6), geometric mean",3.708 L/h
same,AUC(0-inf)/D,"[1]; 6 mg (N = 6), mean",289 [ng/mL × hour]/mg
same,CL/F,"[1]; 12 mg (N = 6), geometric mean",4.956 L/h
same,AUC(0-inf)/D,"[1]; 12 mg (N = 6), mean",230.3 [ng/mL × hour]/mg
same,Tmax,"[1]; 12 mg (N = 6), median",3 h
same,CL/F,"[1]; 24 mg (N = 6), geometric mean",3.8 L/h
same,AUC(0-inf)/D,"[1]; 24 mg (N = 6), mean",274.3 [ng/mL × hour]/mg
same,Tmax,"[1]; 24 mg (N = 6), median",2.75 h
same,"Dose proportionality, Slope Estimate",[1]; AUC(0-inf) (ng*h/mL),0.9833
same,"Dose proportionality, Coefficient of determination",[1]; AUC(0-inf) (ng*h/mL),0.6145
same,"Dose proportionality, Intercept Estimate",[1]; AUC(0-inf) (ng*h/mL),5.534
same,"Dose proportionality, Slope Estimate",[1]; AUC(0-last) (ng*h/mL),1.016
same,"Dose proportionality, Coefficient of determination",[1]; AUC(0-last) (ng*h/mL),0.6425
same,"Dose proportionality, Intercept Estimate",[1]; AUC(0-last) (ng*h/mL),5.389
same,"Dose proportionality, Slope Estimate",[1]; Cmax (ng/mL),0.9884
same,"Dose proportionality, Coefficient of determination",[1]; Cmax (ng/mL),0.6832
same,"Dose proportionality, Intercept Estimate",[1]; Cmax (ng/mL),3.470
same,apparent systemic clearance (CL/F),"[1]; across dose range 6, 12, 24 mg",3.708 to 4.956 L/h
same,Vd/F,"[1]; male, human, plasma, oral, 6 mg, 6 mg (N = 6), geometric mean, read-out: Vz/F",91.6 L
same,half-life,"[1]; male, human, plasma, oral, 6 mg, 6 mg (N = 6), geometric mean, read-out: t1/2 (converted)",17.1 h
same,AUC(0-t),"[1]; male, human, plasma, oral, 6 mg, 6 mg (N = 6), mean, read-out: AUC(0-24)",1140 ng·h/mL
same,AUC(0-t),"[1]; male, human, plasma, oral, 6 mg, 6 mg (N = 6), mean, read-out: AUC(0-last)",1570 ng·h/mL
same,Vd/F,"[1]; male, human, plasma, oral, 12 mg, 12 mg (N = 6), geometric mean, read-out: Vz/F",90.8 L
same,half-life,"[1]; male, human, plasma, oral, 12 mg, 12 mg (N = 6), geometric mean, read-out: t1/2 (converted)",12.7 h
same,AUC(0-t),"[1]; male, human, plasma, oral, 12 mg, 12 mg (N = 6), mean, read-out: AUC(0-24)",1920 ng·h/mL
same,AUC(0-t),"[1]; male, human, plasma, oral, 12 mg, 12 mg (N = 6), mean, read-out: AUC(0-last)",2640 ng·h/mL
same,Vd/F,"[1]; male, human, plasma, oral, 24 mg, 24 mg (N = 6), geometric mean, read-out: Vz/F",69.8 L
same,half-life,"[1]; male, human, plasma, oral, 24 mg, 24 mg (N = 6), geometric mean, read-out: t1/2 (converted)",12.7 h
same,AUC(0-t),"[1]; male, human, plasma, oral, 24 mg, 24 mg (N = 6), mean, read-out: AUC(0-24)",4760 ng·h/mL
same,AUC(0-t),"[1]; male, human, plasma, oral, 24 mg, 24 mg (N = 6), mean, read-out: AUC(0-last)",6240 ng·h/mL
same,AUC(0-t),"[1]; male, human, plasma, oral, 24 mg, SAD study, read-out: maximum value of AUC(0-24)",6080 ng·h/mL
same,half-life,"[1]; male, human, plasma, oral, 24 mg, across dose range 6, 12, 24 mg, read-out: apparent terminal half-life (t1/2)",12.7 to 17.1 h
same,Vd/F,"[1]; male, human, plasma, oral, 24 mg, across dose range 6, 12, 24 mg, read-out: apparent volume of distribution (Vz/F)",69.8 to 91.6 L
same,AUC(0-t),"[1]; male, human, plasma, oral, 24 mg, highest dose level (24 mg), read-out: mean AUC(0-24)",4760 ng·h/mL
same,AUC(0-inf),[1]; [3],1740 ng·h/mL
same,Cmax,[1]; [3],234 ng/mL
same,Tmax,"[1]; male, human, plasma, oral, 6 mg (N = 6), median, read-out: tmax",2.5 h
same,AUC(0-inf),[1]; [4],2770 ng·h/mL
same,Cmax,[1]; [4],285 ng/mL
same,AUC(0-inf),[1]; [5],6580 ng·h/mL
same,Cmax,[1]; [5],909 ng/mL
same,Tmax,"[1]; male, human, plasma, oral, across dose range 6, 12, 24 mg, read-out: median time of maximum concentration (Tmax)",2.5 to 3 h
same,absorption after oral administration,"[1]; single dose 6 mg, 12 mg, or 24 mg",rapidly absorbed
same,Best Cytogenetic Response: Complete Cytogenetic Response,[2]; 174 mg (N = 7),1 (14.3%)
same,Best Cytogenetic Response: Major Cytogenetic Response,[2]; 174 mg (N = 7),2 (28.6%)
same,Best Cytogenetic Response: Minimal Cytogenetic Response,[2]; 174 mg (N = 7),0
same,Best Cytogenetic Response: Minor Cytogenetic Response,[2]; 174 mg (N = 7),0
same,Best Cytogenetic Response: No Response,[2]; 174 mg (N = 7),2 (28.6%)
same,Best Cytogenetic Response: Partial Cytogenetic Response,[2]; 174 mg (N = 7),1 (14.3%)
same,Best Hematologic Response: Complete Hematologic Response,[2]; 174 mg (N = 7),6 (85.7%)
same,Best Hematologic Response: Major Hematologic Response,[2]; 174 mg (N = 7),6 (85.7%)
same,Best Hematologic Response: No Evidence of Leukemia,[2]; 174 mg (N = 7),0
same,Best Hematologic Response: No Response,[2]; 174 mg (N = 7),1 (14.3%)
same,Best Molecular Response: Complete Response,[2]; 174 mg (N = 7),0
same,Best Molecular Response: Major Response,[2]; 174 mg (N = 7),1 (14.3%)
same,Best Molecular Response: No Response,[2]; 174 mg (N = 7),4 (57.1%)
same,Major molecular response (MMR) as best response,"[2]; 1 of the 7 enrolled subjects, 174 mg",14.3%
same,Complete hematological response (CHR) as best response,[2]; 2 of the 2 AP-CML enrolled subjects,100%
same,Major cytogenetic response (MCyR) as best response,"[2]; 2 of the 7 enrolled subjects, 174 mg",28.6%
same,major hematological response (MaHR) as best response,"[2]; 6 of the 7 enrolled subjects, 174 mg",85.7%
same,Major molecular response (MMR) as best response,[2]; 6 of the 13 enrolled CP-CML subjects,46.2%
same,achieved MaHR in the study,"[2]; 7 enrolled subjects, 174 mg",5 subjects
same,came into the study in MaHR and maintained it,"[2]; 7 enrolled subjects, 174 mg",1 subject
same,Major cytogenetic response (MCyR) as best response,[2]; 11 CP-CML enrolled subjects,84.6%
same,Complete hematological response (CHR) as best response,[2]; 13 of the 15 CP-CML enrolled subjects,86.7%
same,achieved CHR in study,"[2]; CP-CML, of 13",9 subjects
same,came into the study in CHR and maintained it,"[2]; CP-CML, of 13",4 subjects
same,developed CCyR,"[2]; CP-CML, of the 13 subjects",61.5%
same,dose up to which no mortality or severe clinical signs were observed,in vivo,≤ 625 mg/kg/day
same,NOAEL at 14 days,"in vivo; dog, in vivo",83 mg/kg/day
same,Tmax,clinical,1.5 to 2.5 h
same,AUC(0-t),clinical; 204 mg,27500 ng·h/mL
same,Cmax,clinical; 204 mg,3310 ng/mL

# Reference: patent US20260069584A1, “METHODS OF TREATING CHRONIC MYELOID LEUKEMIA USING THE TYROSINE KINASE INHIBITOR VODOBATINIB” (Sun Pharma Advanced Research Company Ltd., priority 2022, published 2026)
